Assay results from patent US9206412B2, “Thioxothiazolidine inhibitors” (Colorado State University Research Foundation, priority 2012, dated 2015).
Values joined by “and” are separate entries in the source; they are usually repeats but may differ in a detail not shown here. Equal values may be shown once. “Also recorded” adds a separate entry of the source. Read-outs that look alike come from different tables or passages of the source.

What was measured:
[1] = tested on: dengue type 2 virus subgenomic replicon (BHK-pD2hRucPac); assay: Antiviral (replicon) assay, Renilla luciferase; format: cell-based
WNV = assay: Ki determination, fluorescence polarization (FP_WNV_KI); conditions: read-out: FP_WNV_KI_AVG_WNV_M; Table 2-1
[2] = target: yellow fever virus capping enzyme (Yellow fever virus, UniProt P03314); assay: biochemical; format: binding, yellow fever virus (strain 17D)
[3] = target: T1, dengue virus capping enzyme (Dengue virus type 2, UniProt P29990); assay: biochemical; format: binding, dengue virus type 2 (strain 16681)
T1 sequence (P29990 2492-2758): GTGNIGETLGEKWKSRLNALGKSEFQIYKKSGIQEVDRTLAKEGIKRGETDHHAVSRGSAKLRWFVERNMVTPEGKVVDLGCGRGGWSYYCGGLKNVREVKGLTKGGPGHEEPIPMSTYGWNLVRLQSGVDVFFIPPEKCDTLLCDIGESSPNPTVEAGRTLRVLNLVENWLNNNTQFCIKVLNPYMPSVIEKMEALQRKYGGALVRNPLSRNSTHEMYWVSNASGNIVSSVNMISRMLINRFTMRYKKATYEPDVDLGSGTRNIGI

BHK-pD2hRucPac cells = assay: Cell viability (CellTiter-Glo) in replicon assay; conditions: read-out: Replicon Assay_CC50_M; Table 2-1
yellow fever (17D) virus = format: cell-based
[4] = Cell viability (CellTiter-Glo) in replicon assay; conditions: hamster, BHK-pD2hRucPac cells (dengue replicon cells)
Sindbis virus pBG451 = format: cell-based
[5] = tested on: West Nile virus (Kunjin subtype); format: cell-based
Kunjin virus NS5 protein = assay: Western blot analysis of NS5 in Kunjin infected BHK cells; conditions: MOI=0.01, 48 hours post-infection, increasing concentrations
[6] = tested on: West Nile virus (Kunjin) RNA; assay: qRT-PCR of Kunjin viral RNA in culture media; format: cell-based
Experimental: Quantitative Reverse Transcriptase Real-Time PCR Analysis. West Nile virus (Kunjin) RNA was extracted from cell culture media with Trizol LS (Invitrogen, La Jolla, Calif.) following the manufacturer's protocol. Quantitative reverse transcriptase real-time PCR reactions for Kunjin genomic RNA were performed using the Brilliant III Ultra-Fast SYBR QRT-PCR Master Mix (Catalog # 600886, Agilent, Santa Clara, Calif.) with primers Fwd 6170 (5′-[…] (SEQ ID NO: 1)) and Rev 6278 (5′-[…] (SEQ ID NO: 2)). To set up qRT-PCR reactions, 2 μL of extracted RNA was added to 5 μL of 2× master mix, 1 μL of 5 μM Fwd 6170 primer, 1 μL of 5 μM Rev 6278 primer, and 1 μL of 100 mM DTT in 96-well PCR plates with optically clear sealing films. No RNA and no primer controls were included in each experiment. qRT-PCR reactions were performed on a BioRad CFX384 real-time PCR thermal cycler using the following cycling conditions: Reverse transcriptase step=50° C., 10 minutes; denature step=95° C., 3 minutes; PCR (40 cycles)=95° C., 5 seconds/60° C., 10 seconds. Melt curves were performed at the end of each run, to verify the specificity of the detected SYBR signal. Cq values were determined by setting the threshold to 40 for all experiments. Standard curves were generated from diluted media containing Kunjin virus of known titer (PFU/mL), and the Cq values from experimental samples were compared to the standard curve to establish PFU equivalent/mL values for each sample (y=−3.475x+27.577, y=Cq , X=Log10(PFU)). The limit of detection in these experiments was determined to be 10 PFU equivalents/mL. All experiments were performed three times, and the average and standard error of the mean reported.

dengue capping enzyme = dengue capping enzyme (Dengue virus type 2, UniProt P29990); assay: Guanylation inhibition assay
[7] = Dengue virus, 72 h, read-out: Replicon EC50, Table 3, 72 hours
[8] = Dengue virus, read-out: Replicon Assay_EC50_M, Table 2-1
[9] = Replicon Assay_CC50_M, Table 2-1
[10] = Replicon CC50, Table 3, 72 hours

Chain of yellow fever virus capping enzyme (P03314 2507-2774 limits assumed): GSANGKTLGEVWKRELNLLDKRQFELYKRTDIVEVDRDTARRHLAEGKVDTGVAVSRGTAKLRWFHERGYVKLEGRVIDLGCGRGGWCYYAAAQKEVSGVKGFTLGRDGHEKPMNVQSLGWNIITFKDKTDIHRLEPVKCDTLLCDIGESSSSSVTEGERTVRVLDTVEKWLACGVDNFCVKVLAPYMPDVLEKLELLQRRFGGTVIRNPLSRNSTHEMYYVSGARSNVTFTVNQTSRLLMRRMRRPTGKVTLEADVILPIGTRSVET

SMILES	EC50 [1, 7]	EC50 [1, 8]	Ki ([2]; FP_YF_KI_AVG_YF_M)	Ki ([3]; FP_DEN_Ki_AVG_DEN_M)	Ki ([3]; Ki (GTP displacement))	CC50 at 72 h [4, 9]	CC50 at 72 h [4, 10]	IC50 (dengue capping enzyme)	further results
CC(C)(C)c1ccc(/C=C2\SC(=S)N(CCC(=O)O)C2=O)cc1 [BG295]									EC50 ([1]; Table 2-1, read-out: Replicon Assay_EC50_M): 30 µM; Ki (WNV): 8 µM; Ki ([2]; read-out: FP_YF_KI_AVG_YF_M): 2 µM; Ki ([3]; read-out: FP_DEN_Ki_AVG_DEN_M): 2 µM; CC50 (BHK-pD2hRucPac cells): 114 µM
CC(C)(C)c1ccc(/C=C2/SC(=S)N(CCC(=O)O)C2=O)cc1 [BG-323, (E)-3-(5-(4-tert-butylbenzylidene)-4-oxo-2-thioxo-1,3-thiazolidin-3-yl)propanoic acid]	30.8 µM	30.8 µM	9.5 µM	7.5 µM	~7 µM and 7.5 µM and ~10 µM	184 µM	184 µM		cell viability (BHK cells): minor reduction in cell viability; EC50 ([1]; Dengue virus, 72 h, read-out: Replicon EC50, 72 hours): 30.8 µM; EC50 ([1]; read-out: Replicon EC50, 72 hours): ~30 µM; Ki ([2]; Ki (GTP binding)): ~7 µM; reduction of virus titers (yellow fever (17D) virus): slightly less robust effect; CC50 at 72 h ([4]; Replicon CC50, text): 184 µM; Renilla signal of Sindbis virus (Sindbis virus pBG451): Only a very minor reduction in Renilla signal; also recorded: insensitive; reduction of virus titers [5]: ~3 logs; viral NS5 protein level (Kunjin virus NS5 protein): significant decrease in NS5; viral RNA in media with replacement of compound every 24 hours ([6]; 100 μM, fresh media every 24 hours for 72 hours): significantly reduced viral RNA in media over time; viral RNA detectable in the media ([6]; BHK, Kunjin MOI=0.01, 50 μM or 100 μM, 72 hours post-infection): significantly reduced; activity after pre-incubation in media at 37° C. ([6]; pre-incubated 3, 2, 1, or 0 days, 50 μM, Kunjin RNA at 72 hours): becomes less active over longer incubation periods
O=C(O)CCN1C(=O)/C(=C/c2cccc(Cl)c2Cl)SC1=S [BG-324]	8.5 µM	9 µM	16 µM	10 µM	9.9 µM	12 µM	12 µM	155 µM	
O=C(O)CCN1C(=O)/C(=C/c2ccc(Cl)cc2Cl)SC1=S [BG-330]	8.7 µM	9 µM	9 µM	10 µM	9.8 µM	11 µM	12 µM	2.6 µM	
